Test results as given in PMC2099433, “The binding site for neohesperidin dihydrochalcone at the human sweet taste receptor” (BMC Structural Biology, 2007).
Residue numbers refer to the chain shown, from its start. Where a SMILES comes first, the peptide text is derived from it.

How the values were obtained:
[1] = biological target: T1, hTAS1R2 + hTAS1R3 R725M^5.38 (Homo sapiens, UniProt Q7RTX0+Q8TE23, R725M); test: Calcium response (FLIPR), hTAS1R3 mutant coexpressed with hTAS1R2; assay type: cell-based; conditions: variant R725M^5.38; for Emax: read-out: maximal signal (% of wt)
T1 construct: expressed in transfected cells; host or cells: HEK293T cells stably expressing G16Gust44
T1 sequence (Q7RTX0 21-852 R725M): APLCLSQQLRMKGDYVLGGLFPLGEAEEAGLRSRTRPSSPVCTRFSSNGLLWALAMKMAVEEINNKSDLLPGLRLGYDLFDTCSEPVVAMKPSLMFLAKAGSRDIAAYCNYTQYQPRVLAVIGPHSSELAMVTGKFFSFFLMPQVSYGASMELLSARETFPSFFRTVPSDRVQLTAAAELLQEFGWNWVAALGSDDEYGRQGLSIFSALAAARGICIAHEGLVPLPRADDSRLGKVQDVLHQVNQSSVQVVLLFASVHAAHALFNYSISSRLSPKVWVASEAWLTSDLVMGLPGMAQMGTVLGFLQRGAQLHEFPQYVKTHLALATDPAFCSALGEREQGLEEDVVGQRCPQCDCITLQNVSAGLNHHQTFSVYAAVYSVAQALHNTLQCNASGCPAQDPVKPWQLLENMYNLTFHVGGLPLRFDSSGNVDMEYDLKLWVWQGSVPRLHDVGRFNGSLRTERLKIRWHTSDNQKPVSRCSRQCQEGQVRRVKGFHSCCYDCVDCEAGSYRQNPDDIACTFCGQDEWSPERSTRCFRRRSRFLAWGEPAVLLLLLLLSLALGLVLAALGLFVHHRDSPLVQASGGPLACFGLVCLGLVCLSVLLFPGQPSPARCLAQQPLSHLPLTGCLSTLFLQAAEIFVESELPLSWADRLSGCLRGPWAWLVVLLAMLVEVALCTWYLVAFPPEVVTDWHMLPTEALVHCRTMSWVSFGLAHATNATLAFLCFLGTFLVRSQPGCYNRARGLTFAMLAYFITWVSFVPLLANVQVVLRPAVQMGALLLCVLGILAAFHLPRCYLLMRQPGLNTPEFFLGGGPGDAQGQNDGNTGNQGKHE
T1 sequence (Q8TE23 20-839): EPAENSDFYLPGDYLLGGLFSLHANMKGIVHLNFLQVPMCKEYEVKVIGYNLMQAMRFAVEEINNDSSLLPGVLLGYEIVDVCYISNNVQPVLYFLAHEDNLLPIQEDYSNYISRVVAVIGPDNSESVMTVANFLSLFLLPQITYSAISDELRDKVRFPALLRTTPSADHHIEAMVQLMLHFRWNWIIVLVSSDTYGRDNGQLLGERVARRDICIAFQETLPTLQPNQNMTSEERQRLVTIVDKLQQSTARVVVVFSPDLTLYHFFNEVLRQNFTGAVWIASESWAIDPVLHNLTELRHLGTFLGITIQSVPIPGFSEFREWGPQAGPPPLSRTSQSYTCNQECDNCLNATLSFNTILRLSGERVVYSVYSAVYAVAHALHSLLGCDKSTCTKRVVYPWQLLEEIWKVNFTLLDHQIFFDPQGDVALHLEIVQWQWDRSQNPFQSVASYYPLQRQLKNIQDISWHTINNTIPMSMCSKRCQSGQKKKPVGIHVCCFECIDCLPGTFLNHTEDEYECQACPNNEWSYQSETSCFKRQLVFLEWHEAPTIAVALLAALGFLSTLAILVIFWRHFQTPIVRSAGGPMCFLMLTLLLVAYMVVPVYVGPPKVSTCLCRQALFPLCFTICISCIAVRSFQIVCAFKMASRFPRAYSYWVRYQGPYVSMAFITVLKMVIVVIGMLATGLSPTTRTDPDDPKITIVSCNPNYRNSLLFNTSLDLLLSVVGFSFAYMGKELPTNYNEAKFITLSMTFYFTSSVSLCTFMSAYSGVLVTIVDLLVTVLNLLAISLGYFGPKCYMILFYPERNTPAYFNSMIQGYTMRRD
Method in brief: (§1)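 Calcium mobilization was measured by FLIPR in Fluo4-AM-loaded HEK293T cells coexpressing G16Gust44 with the tagged receptor pair. Signals had mock responses removed and were given as ΔF/F.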

[2] = biological target: T2, hTAS1R2 + hTAS1R3 S620A^2.57 (Homo sapiens, UniProt Q7RTX0+Q8TE23, S620A); test: as above; assay type: cell-based; conditions: variant S620A^2.57; for Emax: read-out: maximal signal (% of wt)
T2 construct: expressed in transfected cells; host or cells: HEK293T cells stably expressing G16Gust44
T2 sequence (Q8TE23 20-839): T1 sequence (Q8TE23 20-839)
T2 sequence (Q7RTX0 21-852 S620A): T1 sequence (Q7RTX0 21-852 R725M) with S600A, M705R
Method in brief: as §1

| Compound | EC50 [1] [µM] | Emax [1] [%] | EC50 [2] [µM] | Emax [2] [%] |
| --- | --- | --- | --- | --- |
| COc1ccc(CCC(=O)c2c(O)cc(O[C@@H]3O[C@H](CO)[C@@H](O)[C@H](O)[C@H]3O[C@@H]3O[C@@H](C)[C@H](O)[C@@H](O)[C@H]3O)cc2O)cc1O [NHDC, neohesperidin dihydrochalcone] | 1300 ± 400 | 64 ± 14 | 1300 ± 500 | 55 ± 80 |
| COC(=O)[C@H](Cc1ccccc1)NC(=O)[C@@H](N)CC(=O)O [aspartame] (HELM PEPTIDE1{D.F.[CO[*:1]]}$$$$V2.0) | 1500 ± 700 | 56 ± 1 | 1200 ± 300 | 64 ± 4 |
